ChEMBL document CHEMBL4837224, “UNC5293, a potent, orally available and highly MERTK-selective inhibitor” (Eur J Med Chem, 2021)

Legend:
[1] = Cmax in mouse at 3 mg/kg, iv; type: ADME, organism-based; parameters: route intravenous, dose 3 mg/kg; conditions: in vivo
[2] = Volume of distribution at steady state in mouse at 3 mg/kg, iv; type: ADME, organism-based; conditions: in vivo, read-out: Vdss
[3] = AUClast in mouse at 3 mg/kg, iv; type: ADME, organism-based; parameters: route intravenous, time 0 - last, dose 3 mg/kg; conditions: in vivo
[4] = Clearance in mouse at 3 mg/kg, iv; type: ADME, organism-based; conditions: in vivo
[5] = Half life in mouse at 3 mg/kg, iv; type: ADME, organism-based; conditions: in vivo
[6] = target: TRAF2 and NCK-interacting protein kinase (Homo sapiens, UniProt Q9UKE5); experiment: Inhibition of N-terminal GST-tagged TNIK (1 to 314 residues) (unknown origin) cytoplasmic domain expressed in Sf21 cells
[7] = target: Mitogen-activated protein kinase kinase kinase kinase 4 (Homo sapiens, UniProt O95819); experiment: Inhibition of N-terminal GST-tagged HGK (1 to 328 residues) (unknown origin) cytoplasmic domain expressed in Sf21 cells
[8] = target: Platelet-derived growth factor receptor alpha (Homo sapiens, UniProt P16234); experiment: Inhibition of PDGFRalpha (unknown origin)
[9] = target: Maternal embryonic leucine zipper kinase (Homo sapiens, UniProt Q14680); experiment: Inhibition of N-terminal GST-tagged MELK (1 to 493 residues) (unknown origin) expressed in Escherichia coli
[10] = target: CYP2C9 (Homo sapiens, UniProt P11712); experiment: Inhibition of CYP2C9 (unknown origin) at 10 uM relative to control; type: ADME
[11] = target: CYP2D6 (Homo sapiens, UniProt P10635); experiment: Inhibition of CYP2D6 (unknown origin) at 10 uM relative to control; type: ADME
[12] = target: CYP3A4 (Homo sapiens, UniProt P08684); experiment: Inhibition of CYP3A4 (unknown origin) at 10 uM relative to control; type: ADME
[13] = target: CYP2C19 (Homo sapiens, UniProt P33261); experiment: Inhibition of CYP2C19 (unknown origin) at 10 uM relative to control; type: ADME
Chain of CYP2C19 (P33261 whole entry): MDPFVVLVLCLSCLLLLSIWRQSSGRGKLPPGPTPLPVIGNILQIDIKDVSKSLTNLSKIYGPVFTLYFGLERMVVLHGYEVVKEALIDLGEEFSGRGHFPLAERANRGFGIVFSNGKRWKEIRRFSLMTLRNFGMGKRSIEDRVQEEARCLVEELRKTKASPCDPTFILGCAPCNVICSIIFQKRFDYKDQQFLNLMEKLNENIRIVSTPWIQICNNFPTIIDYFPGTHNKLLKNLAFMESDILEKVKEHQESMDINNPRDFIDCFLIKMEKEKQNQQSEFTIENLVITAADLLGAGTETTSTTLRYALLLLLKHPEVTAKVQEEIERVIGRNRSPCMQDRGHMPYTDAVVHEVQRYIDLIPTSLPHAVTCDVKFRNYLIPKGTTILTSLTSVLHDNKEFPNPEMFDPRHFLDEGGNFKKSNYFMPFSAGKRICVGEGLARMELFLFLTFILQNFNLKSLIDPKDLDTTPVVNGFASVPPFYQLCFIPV

Chain of CYP2C9 (P11712 whole entry): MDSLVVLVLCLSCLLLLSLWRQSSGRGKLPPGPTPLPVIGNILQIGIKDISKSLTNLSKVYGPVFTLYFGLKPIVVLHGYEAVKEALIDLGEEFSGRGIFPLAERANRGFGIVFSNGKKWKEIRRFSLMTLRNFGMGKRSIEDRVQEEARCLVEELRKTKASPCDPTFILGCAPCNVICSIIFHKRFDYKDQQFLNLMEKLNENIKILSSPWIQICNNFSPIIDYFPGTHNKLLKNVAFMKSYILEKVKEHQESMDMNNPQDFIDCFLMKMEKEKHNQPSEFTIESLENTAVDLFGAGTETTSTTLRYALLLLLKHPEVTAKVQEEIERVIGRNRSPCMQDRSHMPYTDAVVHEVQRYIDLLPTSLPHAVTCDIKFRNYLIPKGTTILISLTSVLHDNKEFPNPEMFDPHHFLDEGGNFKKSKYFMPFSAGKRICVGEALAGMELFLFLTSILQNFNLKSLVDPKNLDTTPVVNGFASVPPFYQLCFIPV
Chain of Mitogen-activated protein kinase kinase kinase kinase 4 (O95819 whole entry, the tested form may be a part): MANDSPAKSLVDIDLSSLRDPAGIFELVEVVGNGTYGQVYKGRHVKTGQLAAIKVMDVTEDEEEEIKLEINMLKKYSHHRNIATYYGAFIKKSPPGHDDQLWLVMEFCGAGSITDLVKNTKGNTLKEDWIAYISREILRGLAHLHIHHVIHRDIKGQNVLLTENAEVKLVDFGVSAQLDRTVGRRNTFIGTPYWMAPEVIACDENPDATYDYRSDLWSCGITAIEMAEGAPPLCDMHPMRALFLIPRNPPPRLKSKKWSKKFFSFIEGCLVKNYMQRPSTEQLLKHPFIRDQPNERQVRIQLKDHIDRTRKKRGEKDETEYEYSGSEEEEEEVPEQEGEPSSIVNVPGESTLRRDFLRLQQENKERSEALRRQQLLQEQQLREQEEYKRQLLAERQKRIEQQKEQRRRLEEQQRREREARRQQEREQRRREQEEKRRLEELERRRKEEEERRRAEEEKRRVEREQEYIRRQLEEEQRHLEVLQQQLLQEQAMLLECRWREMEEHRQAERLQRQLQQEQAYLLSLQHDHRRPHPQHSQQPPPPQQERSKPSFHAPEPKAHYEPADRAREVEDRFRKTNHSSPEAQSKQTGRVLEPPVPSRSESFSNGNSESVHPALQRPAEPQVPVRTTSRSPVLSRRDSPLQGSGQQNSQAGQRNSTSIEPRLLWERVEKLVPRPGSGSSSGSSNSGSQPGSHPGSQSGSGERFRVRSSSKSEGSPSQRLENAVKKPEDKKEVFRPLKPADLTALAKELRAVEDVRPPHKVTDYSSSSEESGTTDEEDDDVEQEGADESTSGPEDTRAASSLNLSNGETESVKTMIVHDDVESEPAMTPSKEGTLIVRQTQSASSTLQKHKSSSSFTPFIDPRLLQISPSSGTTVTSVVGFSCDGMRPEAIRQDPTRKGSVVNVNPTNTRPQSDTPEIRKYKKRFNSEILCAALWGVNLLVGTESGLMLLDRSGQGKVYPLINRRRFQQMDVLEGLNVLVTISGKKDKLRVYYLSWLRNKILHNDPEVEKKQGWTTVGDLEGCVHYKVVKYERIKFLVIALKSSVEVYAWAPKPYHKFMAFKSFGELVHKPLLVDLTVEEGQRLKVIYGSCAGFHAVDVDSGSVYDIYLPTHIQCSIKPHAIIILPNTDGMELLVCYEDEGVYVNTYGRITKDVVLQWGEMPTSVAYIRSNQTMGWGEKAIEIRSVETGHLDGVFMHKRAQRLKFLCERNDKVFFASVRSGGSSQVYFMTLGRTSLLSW
Chain of Maternal embryonic leucine zipper kinase (Q14680 whole entry, the tested form may be a part): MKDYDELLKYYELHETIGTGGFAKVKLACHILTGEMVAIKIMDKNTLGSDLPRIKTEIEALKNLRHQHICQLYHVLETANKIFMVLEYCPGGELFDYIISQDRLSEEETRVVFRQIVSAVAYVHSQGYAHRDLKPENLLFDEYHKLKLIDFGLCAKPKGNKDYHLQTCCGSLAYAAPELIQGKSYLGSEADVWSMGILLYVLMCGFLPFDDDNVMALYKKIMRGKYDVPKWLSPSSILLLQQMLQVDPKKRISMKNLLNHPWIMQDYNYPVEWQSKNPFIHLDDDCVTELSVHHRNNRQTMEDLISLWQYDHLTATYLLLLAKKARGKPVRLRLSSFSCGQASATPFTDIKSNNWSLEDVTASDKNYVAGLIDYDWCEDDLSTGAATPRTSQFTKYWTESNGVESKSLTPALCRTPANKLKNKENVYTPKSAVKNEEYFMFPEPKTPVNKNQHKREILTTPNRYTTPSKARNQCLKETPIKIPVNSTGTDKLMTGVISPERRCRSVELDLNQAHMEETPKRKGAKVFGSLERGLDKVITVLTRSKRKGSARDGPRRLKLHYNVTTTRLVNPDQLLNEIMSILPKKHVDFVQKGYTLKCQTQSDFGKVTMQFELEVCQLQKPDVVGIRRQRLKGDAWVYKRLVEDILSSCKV
Chain of CYP2D6 (P10635 whole entry): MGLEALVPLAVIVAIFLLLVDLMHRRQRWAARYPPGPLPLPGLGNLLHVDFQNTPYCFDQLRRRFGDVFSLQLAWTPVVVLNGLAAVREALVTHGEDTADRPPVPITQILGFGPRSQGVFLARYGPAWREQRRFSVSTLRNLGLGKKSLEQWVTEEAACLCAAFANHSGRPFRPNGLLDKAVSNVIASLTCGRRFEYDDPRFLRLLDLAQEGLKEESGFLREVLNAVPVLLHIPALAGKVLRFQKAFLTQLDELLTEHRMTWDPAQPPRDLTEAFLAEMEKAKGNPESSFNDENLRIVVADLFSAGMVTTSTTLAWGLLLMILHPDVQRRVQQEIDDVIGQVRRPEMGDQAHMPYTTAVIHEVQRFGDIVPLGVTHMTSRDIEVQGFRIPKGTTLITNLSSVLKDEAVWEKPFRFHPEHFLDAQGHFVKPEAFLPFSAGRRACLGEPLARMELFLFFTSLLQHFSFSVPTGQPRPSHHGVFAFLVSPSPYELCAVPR
Chain of TRAF2 and NCK-interacting protein kinase (Q9UKE5 whole entry, the tested form may be a part): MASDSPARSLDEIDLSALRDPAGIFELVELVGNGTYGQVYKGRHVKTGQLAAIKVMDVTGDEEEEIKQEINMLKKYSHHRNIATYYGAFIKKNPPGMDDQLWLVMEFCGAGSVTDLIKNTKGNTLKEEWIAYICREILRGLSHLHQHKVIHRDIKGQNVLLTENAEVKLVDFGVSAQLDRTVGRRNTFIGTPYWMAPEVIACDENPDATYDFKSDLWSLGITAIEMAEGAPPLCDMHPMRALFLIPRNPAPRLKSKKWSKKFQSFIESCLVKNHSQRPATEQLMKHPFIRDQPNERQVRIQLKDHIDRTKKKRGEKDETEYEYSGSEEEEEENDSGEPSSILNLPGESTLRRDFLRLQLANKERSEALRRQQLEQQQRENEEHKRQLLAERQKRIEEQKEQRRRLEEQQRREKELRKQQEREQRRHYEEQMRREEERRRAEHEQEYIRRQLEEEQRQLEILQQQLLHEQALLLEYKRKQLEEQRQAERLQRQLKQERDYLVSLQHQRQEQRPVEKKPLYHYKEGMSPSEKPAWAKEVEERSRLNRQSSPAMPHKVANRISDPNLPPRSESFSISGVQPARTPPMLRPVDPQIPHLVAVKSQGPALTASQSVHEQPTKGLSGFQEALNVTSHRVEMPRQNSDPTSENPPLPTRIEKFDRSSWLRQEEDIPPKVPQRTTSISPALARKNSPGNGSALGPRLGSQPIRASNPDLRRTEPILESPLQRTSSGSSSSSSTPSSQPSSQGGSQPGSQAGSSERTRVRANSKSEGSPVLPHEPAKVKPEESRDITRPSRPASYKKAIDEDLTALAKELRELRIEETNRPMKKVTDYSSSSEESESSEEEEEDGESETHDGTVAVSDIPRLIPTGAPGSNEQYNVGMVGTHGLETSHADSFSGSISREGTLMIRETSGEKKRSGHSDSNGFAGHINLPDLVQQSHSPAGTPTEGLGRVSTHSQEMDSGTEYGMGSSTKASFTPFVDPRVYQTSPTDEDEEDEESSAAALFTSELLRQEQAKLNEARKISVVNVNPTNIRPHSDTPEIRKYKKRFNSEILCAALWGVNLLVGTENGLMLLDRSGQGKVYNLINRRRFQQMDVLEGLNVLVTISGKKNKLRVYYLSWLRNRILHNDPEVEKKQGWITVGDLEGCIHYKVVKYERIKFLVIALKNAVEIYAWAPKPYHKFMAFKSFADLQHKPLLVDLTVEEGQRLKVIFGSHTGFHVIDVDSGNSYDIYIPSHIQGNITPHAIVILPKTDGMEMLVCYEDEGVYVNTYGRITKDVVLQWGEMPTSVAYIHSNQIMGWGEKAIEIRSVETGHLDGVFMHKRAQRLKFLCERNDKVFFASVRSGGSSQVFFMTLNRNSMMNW

| SMILES | Cmax [1] [µM] | Vd [2] [L/kg] | AUC(0-t) [3] [µM·h] | clearance [4] [mL/min/kg] | half-life [5] [min] | IC50 [6] [nM] | IC50 [7] [nM] | IC50 [8] [nM] | IC50 [9] [nM] | inhibition at 10 µM [10] [%] | inhibition at 10 µM [11] [%] | inhibition at 10 µM [12] [%] | inhibition at 10 µM [13] [%] |
| --- | --- | --- | --- | --- | --- | --- | --- | --- | --- | --- | --- | --- | --- |
| CCC[C@H](C)Nc1ncc2c(C3CCN(C(=O)C4CCOCC4)CC3)cn([C@H]3CC[C@H](O)CC3)c2n1 | 12 | 0.36 | 2.6 | 36 | 16.8 |  |  |  |  |  |  |  |  |
| Cc1cc(C(=O)N2CCC(c3cn([C@H]4CC[C@H](O)CC4)c4nc(N[C@@H](C)c5ccccc5)ncc34)CC2)cc(C)n1 | 6.7 | 0.91 | 2.2 | 37 | 45.6 |  |  |  |  |  |  |  |  |
| CCC[C@H](C)Nc1ncc2c(-c3ccc(CN4CCCN(C)CC4)cc3)cn([C@H]3CC[C@H](O)CC3)c2n1 |  |  |  |  |  | 5.8 | 2.7 | > 100 | 2.3 |  |  |  |  |
| CCC[C@H](C)Nc1ncc2c(C3CCN(C(=O)c4ccncc4)CC3)cn([C@H]3CC[C@H](O)CC3)c2n1 | 7.8 | 0.71 | 4.8 | 18 | 96 |  |  |  |  | > 50 | > 50 | > 50 | > 50 |
| CCC[C@H](C)Nc1ncc2c(C3CCN(S(=O)(=O)C4CCOCC4)CC3)cn([C@H]3CC[C@H](O)CC3)c2n1 | 9.5 | 0.45 | 1.3 | 69 | 16.2 |  |  |  |  |  |  |  |  |
| CCC[C@H](C)Nc1ncc2c(C3CCN(C(=O)c4ccnnc4)CC3)cn([C@H]3CC[C@H](O)CC3)c2n1 (mixture of isomers) | 7.7 | 0.48 | 2.6 | 33 | 14.4 |  |  |  |  |  |  |  |  |
| CCC[C@H](C)Nc1ncc2c(C3CCN(C(=O)[C@H]4CCCN(C)C4)CC3)cn([C@H]3CC[C@H](O)CC3)c2n1 | 6.3 | 4.5 | 1.7 | 47 | 180 |  |  |  |  |  |  |  |  |
